# Test results from patent publication US7893045B2, “Methods for treating lymphomas in certain patient populations and screening patients for said therapy” (Celgene Corporation, priority 2007, dated 2011).
# Key:
# aggressive NHL [1] = experiment: Study 1 and 2 taken together: response by predictive factors; format: in vivo, human
# [2] = tested on: peripheral T-cell lymphomas (PTCL); experiment: Clinical Study 3: Phase II lenalidomide for peripheral T-cell lymphomas; format: in vivo; settings: about 25 mg orally daily for 21 days followed by 7 days of rest; ten patients
# Method: A multi-center, open label, phase II study was conducted to evaluate the efficacy of 3-(4-amino-1-oxo-1,3-dihydro-isoindol-2-yl)-piperidin-2,6-dione (lenalidomide) for peripheral T-cell lymphomas (PTCL). Patients with relapsed or refractory disease were eligible, as well as patients who had not previously had systemic therapy but who were ineligible for standard curative chemotherapy regimens due to comorbid illness. Each cycle (28 days) of treatment comprises administration of about 25 mg of 3-(4-amino-1-oxo-1,3-dihydro-isoindol-2-yl)-piperidin-2,6-dione (lenalidomide) given orally daily for 21 days followed by 7 days of rest, until disease progression, death or unacceptable toxicity.
# Ten (9 males and 1 female) patients were enrolled. Median age of participants was 56 years (range, 42-76 years). Histologies of the patients included PTCL unspecified (n=4), angioimmunoblastic T-cell lymphoma (n=4), anaplastic large cell lymphoma (n=1), and gamma/delta T-cell lymphoma (n=1). Median number of prior lines of systemic therapy was one (range, 0-3). Median number of cycles was two (range, 1-8).
# [3] = tested on: relapsed and refractory aggressive non-Hodgkin's lymphoma (NHL); experiment: Clinical Study 1: Phase II oral lenalidomide monotherapy in relapsed and refractory aggressive NHL; format: in vivo, human; settings: for Median progression-free survival: FIG. 1
# Method: A multi-center, open-label, Phase II study was conducted in patients with relapsed and refractory aggressive non-Hodgkin's lymphoma (NHL). The trial was designed for oral monotherapy with 3-(4-amino-1-oxo-1,3-dihydro-isoindol-2-yl)-piperidin-2,6-dione (Revlimid® or lenalidomide) in 49 patients with relapsed and refractory aggressive NHL following one or more prior treatment regimen with measurable disease. Patients in the study received lenalidomide in an amount of 25 mg orally once daily for days one to 21 in a 28-day cycle and continued therapy for 52 weeks as tolerated or until disease progression. A patient who achieved a complete response during the 52 week period was to receive two additional cycles of treatment prior to discontinuing treatment and entering the follow-up phase.
# The patients who had received a median of 4 prior treatments (range: 1-7 prior treatments), were administered with lenalidomide in an amount of 25 mg orally once daily for 21 days in the treatment cycle of 28 days. Of the 49 patients, 26 had diffuse large cell lymphoma, 15 had mantle cell lymphoma, five patients had follicular lymphoma, and three had transformed lymphoma. Median time from diagnosis was 2.7 years (range 0.4-32) and patients had received a median of 4 (range […]) prior drug regimens for NHL. Ninety-three percent of the patients had received prior rituximab and 63% of the patients were rituximab refractory.
# aggressive NHL [4] = experiment: Clinical Study 2: lenalidomide monotherapy in aggressive NHL; format: in vivo, human
# Method: In a separate clinical study, 86 patients received at least 25 mg of lenalidomide once daily on Days 1-21 every 28 days and continued therapy as tolerated or until disease progression. Forty-eight of these patients were evaluable for response assessment (Table 3). The median age was 65 years. The most common histology was DLBCL (63%). The median time from diagnosis to lenalidomide treatment was 2 years. Patients received a median of 4 prior treatment regimens for NHL. Median time from last rituximab treatment was 297 days. […] Ninety-six percent of the patients had received prior rituximab.
# [5] = Study 1 and 2, time from rituximab <230 days, 40 patients
# [6] = Study 1 and 2, time from rituximab ≧230 days, 57 patients
# [7] = Study 1 and 2, tumor burden <50 cm^2, 66 patients
# [8] = Study 1 and 2, tumor burden ≧50 cm^2, 29 patients
# [9] = Aggressive, n=49, 25 mg orally once daily days 1-21 of 28-day cycle
# [10] = DLBCL, n=26, 25 mg daily days 1-21 of 28
# [11] = FCL, n=5, 25 mg daily days 1-21 of 28
# [12] = MCL, n=15, 25 mg daily days 1-21 of 28
# [13] = TSF, n=3, 25 mg daily days 1-21 of 28
# [14] = of fourteen patients with SD at cycle 2
# [15] = the four rituximab naïve patients
# [16] = Aggressive NHL, 48 evaluable patients, at least 25 mg once daily Days 1-21 every 28 days
# [17] = Diffuse large B-cell, 30 patients
# [18] = Follicular center lymphoma grade 3, 1 patient
# [19] = Mantle cell lymphoma, 14 patients
# [20] = Transformed lymphoma, 3 patients
smiles,measurement,setting,value
"Nc1cccc2c1CN(C1CCC(=O)NC1=O)C2=O (centres unmarked) [lenalidomide, 3-(4-amino-1-oxo-1,3-dihydro-isoindol-2-yl)-piperidine-2,6-dione]",Responders,"aggressive NHL [1]; Study 1 and 2, Favorable = tumor burden <50 cm^2 and time since last rituximab ≧230 days, 43 patients",26
same,Response Rate (ORR),"aggressive NHL [1]; Study 1 and 2, Favorable = tumor burden <50 cm^2 and time since last rituximab ≧230 days, N=43",60%
same,Responders,"aggressive NHL [1]; Study 1 and 2, Unfavorable = tumor burden ≧50 cm^2 and/or time since last rituximab <230 days, 54 patients",4
same,Response Rate (ORR),"aggressive NHL [1]; Study 1 and 2, Unfavorable = tumor burden ≧50 cm^2 and/or time since last rituximab <230 days, N=54",7.4%
same,Responders,aggressive NHL [1]; [5],2
same,Response Rate,aggressive NHL [1]; [5],5%
same,Responders,aggressive NHL [1]; [6],28
same,Response Rate,aggressive NHL [1]; [6],49%
same,Responders,aggressive NHL [1]; [7],28
same,Response Rate,aggressive NHL [1]; [7],42%
same,Responders,aggressive NHL [1]; [8],2
same,Response Rate,aggressive NHL [1]; [8],6.9%
same,duration of response,aggressive NHL [1]; Study 1 and 2 taken together,approximately 6 months
same,Response Rate,"aggressive NHL [1]; Study 1 and 2 taken together, all patients",31%
same,side effects,"aggressive NHL [1]; Study 1 and 2 taken together, monotherapy in aggressive NHL",manageable hematological side effects
same,efficacy in peripheral T-cell lymphomas,[2],effective in treating peripheral T-cell lymphomas
same,tolerability of therapy,[2],generally been well tolerated
same,response to lenalidomide,[3]; <230 days since last rituximab therapy,6%
same,response to lenalidomide,[3]; >=230 days since last rituximab therapy,52%
same,"CR, complete response (patients)",[3]; [9],2
same,"CRu, complete response unconfirmed (patients)",[3]; [9],4
same,"PD, progressive disease (patients)",[3]; [9],21
same,"PR, partial response (patients)",[3]; [9],11
same,"RR, response rate",[3]; [9],35%
same,"CR, complete response (patients)","[3]; DLBCL, diffuse large B-cell lymphoma, n=26, 25 mg daily days 1-21 of 28",1
same,"CRu, complete response unconfirmed (patients)",[3]; [10],2
same,"PD, progressive disease (patients)",[3]; [10],14
same,"PR, partial response (patients)",[3]; [10],2
same,"RR, response rate",[3]; [10],19%
same,"CR, complete response (patients)","[3]; FCL, follicular-center lymphoma, n=5, 25 mg daily days 1-21 of 28",0
same,"CRu, complete response unconfirmed (patients)",[3]; [11],1
same,"PD, progressive disease (patients)",[3]; [11],2
same,"PR, partial response (patients)",[3]; [11],2
same,"RR, response rate",[3]; [11],60%
same,"CR, complete response (patients)","[3]; MCL, mantle cell lymphoma, n=15, 25 mg daily days 1-21 of 28",1
same,"CRu, complete response unconfirmed (patients)",[3]; [12],1
same,"PD, progressive disease (patients)",[3]; [12],5
same,"PR, partial response (patients)",[3]; [12],6
same,"RR, response rate",[3]; [12],53%
same,"CRu, complete response unconfirmed (patients)",[3]; [13],0
same,"PD, progressive disease (patients)",[3]; [13],0
same,"PR, partial response (patients)",[3]; [13],1
same,"RR, response rate",[3]; [13],33%
same,"CR, complete response (patients)","[3]; TSF, transformed lymphoma, n=3, 25 mg daily days 1-21 of 28",0
same,response to lenalidomide,[3]; absolute lymphocyte count <=0.6×10^9/L,9%
same,response to lenalidomide,[3]; absolute lymphocyte count >0.6×10^9/L,42%
same,patients with initial PR at 2 cycles who went on to CR/CRu with continued treatment,[3]; continued treatment,four
same,Response Rate,"[3]; favorable values of disease burden, absolute lymphocyte count and time since last rituximab (n=23)",65%
same,patients with stable disease at the first (cycle 2) assessment,"[3]; first assessment, cycle 2",Fourteen
same,response to lenalidomide,[3]; largest tumor lesion <=4.5 cm,55%
same,response to lenalidomide,[3]; largest tumor lesion >4.5 cm,5%
same,patients with SD or PR at first assessment who improved their response with continued treatment,[3]; of 28 patients,seven
same,share of patients with SD or PR at first assessment who improved their response,[3]; of 28 patients,25%
same,patients with an objective response,[3]; of 49 patients,Seventeen
same,patients with SD at first assessment who went on to exhibit a response with continued treatment,[3]; [14],three
same,share of patients with SD at first assessment who went on to exhibit a response,[3]; [14],21%
same,response to lenalidomide,[3]; patients not refractory to rituximab,31%
same,response to lenalidomide,[3]; patients refractory to rituximab,30%
same,Median progression-free survival,[3]; patients with favorable prognostic values,7.5 months
same,Median progression-free survival,[3]; patients with poor prognostic factors,1.9 months
same,patients with CR,[3]; [15],two
same,patients with PR,[3]; [15],1
same,patients with SD,[3]; [15],1
same,response to lenalidomide,[3]; tumor burden <50 cm^2,52%
same,response to lenalidomide,[3]; tumor burden >=50 cm^2,0%
same,Response Rate,[3]; unfavorable values for these prognostic values (n=26),8%
same,Median progression-free survival,"[3]; whole group (all patients), Kaplan-Meier",3.7 months
same,response to lenalidomide,aggressive NHL [4]; <230 days from rituximab to lenalidomide treatment,5%
same,"ORR, overall response rate",aggressive NHL [4]; [16],27%
same,"PD, progressive disease (patients)",aggressive NHL [4]; [16],25
same,"PR, partial response (patients)",aggressive NHL [4]; [16],12
same,"CR, complete response (patients)",aggressive NHL [4]; [17],1
same,"ORR, overall response rate",aggressive NHL [4]; [17],20%
same,"PD, progressive disease (patients)",aggressive NHL [4]; [17],19
same,"PR, partial response (patients)",aggressive NHL [4]; [17],5
same,"CR, complete response (patients)",aggressive NHL [4]; [18],0
same,"ORR, overall response rate",aggressive NHL [4]; [18],100%
same,"PD, progressive disease (patients)",aggressive NHL [4]; [18],0
same,"PR, partial response (patients)",aggressive NHL [4]; [18],1
same,"CR, complete response (patients)",aggressive NHL [4]; [19],0
same,"ORR, overall response rate",aggressive NHL [4]; [19],36%
same,"PD, progressive disease (patients)",aggressive NHL [4]; [19],9
same,"PR, partial response (patients)",aggressive NHL [4]; [19],5
same,"CR, complete response (patients)",aggressive NHL [4]; [20],0
same,"ORR, overall response rate",aggressive NHL [4]; [20],33%
same,"PD, progressive disease (patients)",aggressive NHL [4]; [20],1
same,"PR, partial response (patients)",aggressive NHL [4]; [20],1
same,ORR,aggressive NHL [4]; favorable values for both tumor burden and time from rituximab (N=19),53%
same,response to lenalidomide,aggressive NHL [4]; tumor burden <50 cm^2,33%
same,response to lenalidomide,aggressive NHL [4]; tumor burden ≧50 cm^2,14%
same,ORR,aggressive NHL [4]; unfavorable values (N=29),10%
same,response to lenalidomide,aggressive NHL [4]; ≧230 days from rituximab to lenalidomide treatment,46%
